IC50 data for 4 compounds are collected here from ChEMBL document CHEMBL1268861, “Isolation and characterization of diastereomers of discorhabdins H and K and assignment of absolute configuration to discorhabdins D, N, Q, S, T, and U” (J Nat Prod, 2010).

As a reminder, the IC50 is the concentration at which inhibition is half-maximal. A high value points to weaker potency.

This assay has as its system P388. Nature of the assay: Cytotoxicity against mouse P388 cells. It is filed as functional, cell-based.
`Cn1cnc(SC2=CC(=O)C=C3S[C@@H]4C[C@]23C2=C(N4)C(=O)c3[nH]cc4c3C2=NCC4)c1C[C@H](N)C(=O)O` [DISCORHABDIN K2]: the IC50 was > 8.2 µM.
With `Cn1cnc(S[C@H]2[C@H]3C(=O)C=C4S[C@H]5C[C@]42C2=C(N5)C(=O)c4[nH]cc5c4C2=[N+]3CC5)c1C[C@H](N)C(=O)O` [DISCORHABDIN H], the IC50 was > 8.2 µM.
Turning to `Cn1cnc(S[C@@H]2[C@@H]3C(=O)C=C4S[C@@H]5C[C@@]42C2=C(N5)C(=O)c4[nH]cc5c4C2=[N+]3CC5)c1C[C@H](N)C(=O)O` [DISCORHABDIN H2], the IC50 was > 8.2 µM.
With `Cn1cnc(SC2=CC(=O)C=C3S[C@H]4C[C@@]23C2=C(N4)C(=O)c3[nH]cc4c3C2=NCC4)c1C[C@H](N)C(=O)O` [DISCORHABDIN K], the half-inhibitory concentration (IC50) is > 8.2 µM.
